Source: article PMC9050848, “Carbamoyl-N-aryl-imine-urea: a new framework to obtain a putative leishmanicidal drug-candidate” (RSC Advances, 2020)

How the values were obtained:
[1] = test system: L. braziliensis intracellular amastigotes; assay: Leishmanicidal activity against intracellular amastigote forms of L. braziliensis in J774.A1 macrophages; type: cell-based; conditions: Leishmania braziliensis
Description: Further, the leishmanicidal activity against intracellular amastigotes forms of L. braziliensis were also investigated (Table 2).
Promastigotes of L. amazonensis (MHOM/BR/77/LTB0016) were obtained from Dr Eduardo Caio Torres dos Santos at Oswaldo Cruz Institute – Fiocruz. Promastigotes of L. braziliensis (MHOM/BR/01/BA788) were obtained from Dr Valéria de Matos Borges at Gonçalo Moniz Research Center – Fiocruz. The parasites were maintained in vitro in Schneider's medium, supplemented with 10% FBS and 2% human urine at 27 °C in BOD incubator.
Initially, compounds 9a–e and 10a–e were evaluated at screening concentration of 30 μM against L. amazonensis, using DMSO 0.03% as vehicle control, since this was the DMSO concentration (vehicle) remaining in each well with the tested compounds. […] Vehicle control used was DMSO 0.1%, since this was the concentration of DMSO (vehicle) existing in each well with the tested substances in the highest concentration used.
To assess the activity of the test derivatives against the amastigote stage of L. amazonensis and L. braziliensis the model of infection in coverglass was realized.[31] The murine macrophages (J774.A1 cell line) were prepared in 24-well cell culture plate (flat bottom, clear, Corning) at 2 × 10^5 adherent cells per well, infected with 2 × 10^6 promastigotes in glass coverslips placed inside 1 mL medium culture. The cultures were cultured or not with the test derivatives or reference drugs, and kept for 24 h at 37 °C, 5% CO2. After 24 h of incubation, the coverslips were washed, stained with Giemsa–May–Grünwald, and intracellular amastigotes were counted in 100 macrophages, using an optical microscope, on the objective of 100×. Thus, during the counting of 100 macrophages, the amount of amastigotes present within these defence cells was also determined. Data obtained from in vitro experiments were expressed as the mean ± S.E.M. of duplicate cultures of representative assays. Statistical differences between the treated and the control groups were evaluated by ANOVA and Dunnett hoc tests. Differences with a p value < 0.05 or lower were considered significant.

[2] = Plasma stability (UPLC-MS/MS recovery); type: in vitro ADME; conditions: 4 hours, 37 °C, rat plasma diluted 1:1 with PBS pH 7.4
Protocol: (§1) To investigate the potential plasma instability of the carbamoyl-N-arylimine-urea subunit, designed as a new peptide mimetic framework, compound 10e (LASSBio-1736) was selected to investigate its plasma stability,[21,22] previously to the evaluation of its in vivo leishmanicidal effect. Quantitation of 10e (LASSBio-1736), benzocaine standard (positive control; it means a substrate drug for plasma hydrolysis) and ketoconazole (internal standard) was determined by UPLC-MS/MS, after incubation of the compounds at 0, 30, 60, 120 and 240 min with rat plasma, and measuring the peak areas in three different experiments.
For analysis of plasma stability, 5 μL (250 ng mL^−1) of a concentrated solution of 10e (LASSBio-1736) or the positive control benzocaine (stock concentration = 10 000 ng mL^−1 solubilized in DMSO) was added in 195 μL of rat plasma solution (1 : 1) diluted with PBS (pH 7.4). […] The supernatant (400 μL) were placed in 2 mL vials, and analyzed by UPLC-MS/MS. […]
Detection in single reaction monitoring (SRM) mode was used for determination of the LASSBio-1736 (10e) m/z 419.1 → 205.0, benzocaine m/z 166.1 → 137.9 and ketoconazole (IS) 532.1 → 490.3, with a tolerance of mass deviation of 6 ppm, operating in positive ionization mode. The data were acquired using TraceFinder 3.2. software (Thermo Fisher Scientific, Waltham, USA), and analyzed using GraphPad Prism 5 program.

[3] = Chemical stability in PBS pH 7.4; type: physicochemical; conditions: PBS pH 7.4, 37 °C, 0 and 240 minutes
Protocol: as §1, with “experiments. […]” for “experiments.”
final R1 factor for I >2σ(I ) 0.0594 final wR 2 factor for all data 0.1689 largest diff. peak / hole (e/Å 3) 0.220 and -0.256
Chemical stability pH 7.4
In a 10 mL tube, 5μL (250 ng/mL) of LASSBio-1736 (10e) (stock concentration = 10000 ng/mL solubilized in DMSO) was added in 195μ L of PBS (pH=7.4), and the mixture was placed in a shaker at 37 °C under vigorous stirring for 0 and 240 minutes. […]
The samples were resuspended with 100 μL of a methanol:water mixture (7:3) […] and were placed in 2 mL vials, and analyzed by UPLC-MS. […]

## O=C(N/N=C/c1ccc(C(F)(F)F)cc1)NNC(=O)c1ccc(Cl)cc1Cl [LASSBio-1736 (10e), 2,4-dichloro-phenylcarbamoyl-N-4-trifluoromethylphenylimine-urea]
[1]; J774.A1, 24 h, read-out: IC50 (concentration required to give 50% death of parasites)
  IC50: 5.3 ± 2.6 µM
[1]; J774.A1, L. braziliensis intracellular amastigotes, maximum toxicity vs 0.1% DMSO group, read-out: Maximum effect (% ± S.E.M.)
  Emax: 57.2 ± 5.2%
[2]
  Compound recovery after incubation with rat plasma: completely recovered
[3]
  Stability to hydrolysis at PBS (pH 7.4): stable to hydrolysis
